Measurements: patent US20230183249A1, “NEW TRIAZINOINDOLE COMPOUNDS” (JANSSEN PHARMACEUTICA NV, priority 2020, published 2023)

Assays:
[1] = target: T1, NLRP3 (Homo sapiens, UniProt Q96P20); experiment: PBMC assay, IL-1β release after LPS stimulation; type: cell-based; conditions: human PBMCs, 100 ng/ml LPS for 6 hrs, IL-1β in supernatant via MSD; read-out: IL1β IC50
T1 construct: human peripheral blood mononuclear cells (PBMCs) were isolated from blood; endogenous in cells; host or cells: primary human PBMCs from healthy donors
Experimental: The activity of a compound according to the present invention can be assessed by in vitro methods.
Peripheral venous blood was collected from healthy individuals and human peripheral blood mononuclear cells (PBMCs) were isolated from blood by Ficoll-Histopaque (Sigma-Aldrich, A0561) density gradient centrifugation. After isolation, PBMCs were stored in liquid nitrogen for later use. Upon thawing, PBMC cell viability was determined in growth medium (RPMI media supplemented with 10% fetal bovine serum, 1% Pen-Strep and 1% L-glutamine). […] PBMCs were added at a density of 7.5×10^4 cells per well and incubated for 30 min in a 5% C02 incubator at 37° C. LPS stimulation was performed by addition of 100 ng/ml LPS (final concentration, Invivogen, tlrl-smlps) for 6 hrs followed by collection of cellular supernatant and the analysis of IL-1β (μM) and TNF cytokines levels (μM) via MSD technology according to manufacturers' guidelines (MSD, K151A0H).

[2] = test system: TNF; experiment: PBMC assay, TNF cytokine levels after LPS stimulation; type: cell-based; conditions: human PBMCs, 100 ng/ml LPS for 6 hrs, TNF in supernatant via MSD
Experimental: Peripheral venous blood was collected from healthy individuals and human peripheral blood mononuclear cells (PBMCs) were isolated from blood by Ficoll-Histopaque (Sigma-Aldrich, A0561) density gradient centrifugation. After isolation, PBMCs were stored in liquid nitrogen for later use. Upon thawing, PBMC cell viability was determined in growth medium (RPMI media supplemented with 10% fetal bovine serum, 1% Pen-Strep and 1% L-glutamine). Compounds were spotted in a 1:3 serial dilution in DMSO and diluted to the final concentration in 30 μl medium in 96 well plates (Falcon, 353072). PBMCs were added at a density of 7.5×10^4 cells per well and incubated for 30 min in a 5% C02 incubator at 37° C. LPS stimulation was performed by addition of 100 ng/ml LPS (final concentration, Invivogen, tlrl-smlps) for 6 hrs followed by collection of cellular supernatant and the analysis of IL-1β (μM) and TNF cytokines levels (μM) via MSD technology according to manufacturers' guidelines (MSD, K151A0H).
The IC50 values (for IL-1β) and EC50 values (TNF) were obtained on compounds of the invention/examples, and are depicted in the following table: […]

T1 sequence (Q96P20 whole entry): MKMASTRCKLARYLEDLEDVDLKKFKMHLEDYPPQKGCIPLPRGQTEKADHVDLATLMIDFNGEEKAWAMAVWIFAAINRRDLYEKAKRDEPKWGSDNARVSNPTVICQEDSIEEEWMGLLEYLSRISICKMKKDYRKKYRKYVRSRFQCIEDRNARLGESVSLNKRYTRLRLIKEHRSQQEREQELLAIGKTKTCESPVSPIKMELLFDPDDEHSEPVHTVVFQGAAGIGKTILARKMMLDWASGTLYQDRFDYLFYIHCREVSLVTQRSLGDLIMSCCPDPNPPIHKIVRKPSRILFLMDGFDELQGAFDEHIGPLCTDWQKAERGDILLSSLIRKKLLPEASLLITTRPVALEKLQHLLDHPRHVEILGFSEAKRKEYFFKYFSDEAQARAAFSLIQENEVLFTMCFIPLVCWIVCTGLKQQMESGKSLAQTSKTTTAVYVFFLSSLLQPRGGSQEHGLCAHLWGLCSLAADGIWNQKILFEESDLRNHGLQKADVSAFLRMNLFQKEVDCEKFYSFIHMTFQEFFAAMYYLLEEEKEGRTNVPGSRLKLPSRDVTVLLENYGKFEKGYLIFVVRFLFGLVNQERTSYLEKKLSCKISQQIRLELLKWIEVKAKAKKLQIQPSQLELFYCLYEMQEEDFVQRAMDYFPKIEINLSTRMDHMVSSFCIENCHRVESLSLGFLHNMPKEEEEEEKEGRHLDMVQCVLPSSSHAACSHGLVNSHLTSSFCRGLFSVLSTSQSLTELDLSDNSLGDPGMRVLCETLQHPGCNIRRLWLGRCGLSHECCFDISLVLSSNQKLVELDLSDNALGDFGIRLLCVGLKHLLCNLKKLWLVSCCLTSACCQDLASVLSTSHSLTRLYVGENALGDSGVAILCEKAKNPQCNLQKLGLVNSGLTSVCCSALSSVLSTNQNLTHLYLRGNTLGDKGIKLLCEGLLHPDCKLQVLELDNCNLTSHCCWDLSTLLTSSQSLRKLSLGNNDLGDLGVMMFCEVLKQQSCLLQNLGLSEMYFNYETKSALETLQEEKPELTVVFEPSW

Compound	IC50 [1] [µM]	EC50 [2] [µM]	melting point [°C]
O=C(Cn1nc(Cl)n2c(cc3ccccc32)c1=O)Nc1ccncn1 [Final Cpd 1, 2-(4-chloro-1-oxo-[1,2,4]triazino[4,5-a]indol-2-yl)-N-pyrimidin-4-yl-acetamide]	0.62	> 10	–
O=C(Cn1ncn2c(cc3ccccc32)c1=O)Nc1ccncn1 [Final Cpd 2]	1.89	> 10	–
O=C(Cn1ncn2c(cc3ccc(F)cc32)c1=O)Nc1ccncn1 [Final Cpd 3]	1.58	> 10	–
O=C(Cn1nc(C2CCC2)n2c(cc3ccccc32)c1=O)Nc1ccncn1 [Final Cpd 4]	1.54	> 10	–
O=C(Cn1nc(C(F)F)n2c(cc3ccccc32)c1=O)Nc1ccncn1 [Final Cpd 5]	0.47	> 10	–
CC(F)(F)c1nn(CC(=O)Nc2ccncn2)c(=O)c2cc3ccccc3n12 [Final Cpd 6]	> 10	> 10	–
N#Cc1nn(CC(=O)Nc2ccncn2)c(=O)c2cc3ccccc3n12 [Final Cpd 7]	3.5	> 10	–
O=C(Cn1nc(-c2ncco2)n2c(cc3ccccc32)c1=O)Nc1ccncn1 [Final Cpd 8]	5.8	> 10	–
O=C(Cn1nc(C(F)(F)F)n2c(cc3ccccc32)c1=O)Nc1ccncn1 [Final Cpd 9]	1.91	> 10	–
CCc1nn(CC(=O)NC2CC2)c(=O)c2cc3ccc(F)cc3n12 [Final Cpd 10]	1.68	> 10	277.81
COc1ncccc1NC(=O)Cn1nc(C(C)C)n2c(cc3ccccc32)c1=O [Final Cpd 12]	0.41	> 10	–
Cc1cc(NC(=O)Cn2nc(C(C)C)n3c(cc4ccccc43)c2=O)ccn1 [Final Cpd 13]	0.15	> 10	–
CC(C)c1nn(CC(=O)Nc2ccncn2)c(=O)c2cc3ccccc3n12 [Final Cpd 14]	0.17	> 10	–
CCc1nn(CC(=O)Nc2cccnc2)c(=O)c2cc3ccccc3n12 [Final Cpd 15]	0.63	> 10	232.81
CCc1nn(CC(=O)Nc2ccccc2OC)c(=O)c2cc3ccccc3n12 [Final Cpd 17]	2.8	> 10	216.79
O=C(Cn1nc(C2CC2)n2c(cc3ccccc32)c1=O)Nc1ccncn1 [Final Cpd 18]	0.76	> 10	–
CN(C)c1nn(CC(=O)NC2CCOCC2)c(=O)c2cc3ccccc3n12 [Final Cpd 20]	0.31	> 10	–
CN(C)c1nn(CC(=O)N[C@H]2CC[C@H](O)CC2)c(=O)c2cc3ccccc3n12 [Final Cpd 21]	0.39	> 10	–
CC(O)c1nn(CC(=O)Nc2ccncn2)c(=O)c2cc3ccccc3n12 (stereo not shown) [Final Cpd 22, 2-[4-(1-hydroxyethyl)-1-oxo-[1,2,4]triazino[4,5-a]indol-2-yl]-N-pyrimidin-4-yl-acetamide]	1.44	> 10	–
Cc1nn(CC(=O)NC2CC2)c(=O)c2cc3ccccc3n12 [Final Cpd 23, N-cyclopropyl-2-(4-methyl-1-oxo-[1,2,4]triazino[4,5-a]indol-2-yl)acetamide]	9.12	> 10	–
COc1nn(CC(=O)NC2CCOCC2)c(=O)c2cc3ccccc3n12 [Final Cpd 24, 2-(4-methoxy-1-oxo-[1,2,4]triazino[4,5-a]indol-2-yl)-N-tetrahydropyran-4-yl-acetamide]	1.17	> 10	–
O=C(Cn1nc(C2CCCC2)n2c(cc3ccccc32)c1=O)NC1CCOCC1 [Final Cpd 25]	> 10	> 20	–
CC(C)Cc1nn(CC(=O)NC2CCOCC2)c(=O)c2cc3ccccc3n12 [Final Cpd 26]	> 10	> 10	–

Compound	IC50 [1] [µM]	EC50 [2] [µM]	melting point [°C]
O=C(Cn1nc(-c2cccs2)n2c(cc3ccccc32)c1=O)NC1CCOCC1 [Final Cpd 27]	> 10	> 10	–
O=C(Cn1nc(C2CCCCC2)n2c(cc3ccccc32)c1=O)NC1CCOCC1 [Final Cpd 28]	> 10	> 10	–
CC(C)c1nn(CC(=O)NC2CC2)c(=O)c2cc3ccccc3n12 [Final Cpd 29]	0.66	> 10	–
CCc1nn(CC(=O)Nc2ccncn2)c(=O)c2cc3ccc(C)cc3n12 [Final Cpd 30]	> 10	> 10	248.91
CCc1nn(CC(=O)Nc2ccncc2)c(=O)c2cc3ccc(F)cc3n12 [Final Cpd 31]	0.79	> 10	–
CCc1nn(CC(=O)NC2CCOCC2)c(=O)c2cc3ccc(C)cc3n12 [Final Cpd 32]	> 10	> 10	264.11
CCc1nn(CC(=O)Nc2ccncn2)c(=O)c2cc3ccc(F)cc3n12 [Final Cpd 33]	0.31	> 10	–
CCc1nn(CC(=O)NC2CCOCC2)c(=O)c2cc3cc(C)ccc3n12 [Final Cpd 34]	7.24	> 10	274.18
CCc1nn(CC(=O)NC2CCOCC2)c(=O)c2cc3cc(F)ccc3n12 [Final Cpd 35]	> 10	> 10	285.66
CCc1nn(CC(=O)Nc2ccncn2)c(=O)c2cc3cc(F)ccc3n12 [Final Cpd 36]	7.24	> 10	–
CCc1nn(CC(=O)Nc2ccncn2)c(=O)c2cc3cc(C)ccc3n12 [Final Cpd 37]	> 10	> 10	–
CCc1nn(CC(=O)Nc2ccn(C(C)C)n2)c(=O)c2cc3ccccc3n12 [Final Cpd 38]	7.7	> 20	243
CCc1nn(CC(=O)N[C@H]2C[C@@](C)(O)C2)c(=O)c2cc3ccc(F)cc3n12 [Final Cpd 39, 2-{4-ethyl-7-fluoro-1-oxo-[1,2,4]triazino[4,5-a]indol-2(1H)-yl}-N-((1s,3s)-3-hydroxy-3-methylcyclobutyl)acetamide]	0.176	> 20	–
CN(C)c1nn(CC(=O)N[C@H]2C[C@@](C)(O)C2)c(=O)c2cc3ccc(F)cc3n12 [Final Cpd 40]	0.237	> 20	–
CC(C)c1nn(CC(=O)N[C@H]2C[C@@](C)(O)C2)c(=O)c2cc3ccccc3n12 [Final Cpd 41]	0.052	15.4	–
CC(C)c1nn(CC(=O)N[C@H]2C[C@@](C)(O)C2)c(=O)c2cc3ccc(F)cc3n12 [Final Cpd 42]	0.077	10.9	–
CCc1nn(CC(=O)N[C@H]2C[C@@](C)(O)C2)c(=O)c2cc3ccccc3n12 [Final Cpd 43]	0.086	> 20	–
CN(C)c1nn(CC(=O)N[C@H]2C[C@@](C)(O)C2)c(=O)c2cc3ccccc3n12 [Final Cpd 44]	0.057	> 20	–
CC(C)c1nn(CC(=O)Nc2ccc3nncn3c2)c(=O)c2cc3ccc(F)cc3n12 [Final Cpd 46]	0.044	> 20	–
CN(C)c1nn(CC(=O)Nc2ccc3nncn3c2)c(=O)c2cc3ccccc3n12 [Final Cpd 47]	0.052	> 20	–
CCc1nn(CC(=O)Nc2ccc3nncn3c2)c(=O)c2cc3ccccc3n12 [Final Cpd 48]	0.122	> 20	–
CC(C)c1nn(CC(=O)Nc2ccc3nncn3n2)c(=O)c2cc3ccccc3n12 [Final Cpd 49, N-([1,2,4]triazolo[4,3-b]pyridazin-6-yl)-2-(4-isopropyl-1-oxo-[1,2,4]triazino[4,5-a]indol-2(1H)-yl)acetamide]	0.025	3.94	–
COc1nn(CC(=O)NC2CC2)c(=O)c2cc3ccccc3n12 [Final Cpd 50]	4.07	> 10	–
